# In patent publication US11213525B2, “Linear glycosidase inhibitors” (Asceneuron SA, priority 2017, dated 2022):
# Target: His-Tagged hOGA (human O-GlcNAcase) (Homo sapiens (Human), UniProt O60502)
# Assay: Human O-GlcNAcase enzyme inhibition assay
# Assay type: biochemical
# Conditions: 20 nM His-Tagged hOGA, 10 μM FL-GlcNAc, 60 min at room temperature, pH 6.5; activity classes defined in μM; read-out: Enzymatic OGA IC50
# Description: Then, 20 nM of His-Tagged hOGA and 10 μM of FL-GlcNAc (Fluorescein mono-beta-D-(2-deoxy-2-N-acetyl) glucopyranoside; Marker Gene Technologies Inc, M1485) were added to the 384-well plate for a final volume of 20 μl.
# Chain of His-Tagged hOGA (human O-GlcNAcase) (O60502 whole entry): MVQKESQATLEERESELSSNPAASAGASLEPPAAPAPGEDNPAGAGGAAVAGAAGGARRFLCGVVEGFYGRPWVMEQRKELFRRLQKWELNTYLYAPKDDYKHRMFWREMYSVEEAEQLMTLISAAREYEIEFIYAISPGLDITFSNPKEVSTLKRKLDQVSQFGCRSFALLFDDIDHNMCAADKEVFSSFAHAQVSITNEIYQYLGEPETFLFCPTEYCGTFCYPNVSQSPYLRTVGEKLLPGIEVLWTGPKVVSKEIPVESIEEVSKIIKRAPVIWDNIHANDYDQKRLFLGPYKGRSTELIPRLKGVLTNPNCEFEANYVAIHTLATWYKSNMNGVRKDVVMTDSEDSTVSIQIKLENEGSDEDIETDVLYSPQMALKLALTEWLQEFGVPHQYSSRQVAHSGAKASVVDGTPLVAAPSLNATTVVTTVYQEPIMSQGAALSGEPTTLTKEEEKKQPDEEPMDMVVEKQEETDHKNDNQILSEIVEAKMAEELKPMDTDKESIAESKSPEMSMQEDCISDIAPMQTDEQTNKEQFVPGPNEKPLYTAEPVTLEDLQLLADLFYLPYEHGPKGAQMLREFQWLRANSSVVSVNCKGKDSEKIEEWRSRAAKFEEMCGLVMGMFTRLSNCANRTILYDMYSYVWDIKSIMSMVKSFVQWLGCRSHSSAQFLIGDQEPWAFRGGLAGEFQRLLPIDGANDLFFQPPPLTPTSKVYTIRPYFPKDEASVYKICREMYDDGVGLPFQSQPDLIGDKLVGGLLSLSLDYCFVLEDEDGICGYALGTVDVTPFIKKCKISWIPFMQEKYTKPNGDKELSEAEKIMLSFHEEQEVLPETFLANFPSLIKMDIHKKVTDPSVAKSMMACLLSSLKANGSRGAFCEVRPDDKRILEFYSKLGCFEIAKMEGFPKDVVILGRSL
row,Compound,IC50 [µM]
1,"CC(c1ccc2c(c1)OCC2)N1CCN(C(=O)NC2CCOC2)CC1 (racemic) [Example 18, 4-(1-(2,3-dihydrobenzofuran-6-yl)ethyl)-N-(tetrahydrofuran-3-yl)piperazine-1-carboxamide]",0.05 to 0.2
2,"CC(c1ccc2c(c1)OCO2)N1CCN(C(=O)Nc2ccccc2)CC1 (racemic) [Example 19, 4-(1-(benzo[d][1,3]dioxol-5-yl)ethyl)-N-phenylpiperazine-1-carboxamide]",0.2 to 1
3,"CC(c1ccc2c(c1)OCO2)N1CCN(C(=O)Nc2ccc(Cl)cc2)CC1 (racemic) [Example 20, 4-(1-(benzo[d][1, 3]dioxol-5-yl)ethyl)-N-(4-chlorophenyl)piperazine-1-carboxamide]",0.2 to 1
4,"CC(c1ccc2c(c1)OCC2)N1CCC(C(=O)NCc2ccc(C#N)cc2)CC1 (racemic) [Example 21, N-(4-cyanobenzyl)-1-(1-(2,3-dihydrobenzofuran-6-yl)ethyl)piperidine-4-carboxamide]",0.2 to 1
5,"CC(c1ccc2c(c1)OCC2)N1CCC(C(=O)NCc2ccc(S(C)(=O)=O)cc2)CC1 (racemic) [Example 22, 1-(1-(2,3-dihydrobenzofuran-6-yl)ethyl)-N-(4-(methylsulfonyl)benzyl)piperidine-4-carboxamide]",0.2 to 1
6,"CC(c1ccc2c(c1)OCC2)N1CCC(C(=O)NCc2ccc(C(F)(F)F)cc2)CC1 (racemic) [Example 23, 1-(1-(2,3-dihydrobenzofuran-6-yl)ethyl)-N-(4-(trifluoromethyl)benzyl)piperidine-4-carboxamide]",0.2 to 1
7,"CC(c1ccc2c(c1)OCC2)N1CCC(Nc2cccnc2)CC1 (racemic) [Example 24, N-(1-(1-(2,3-dihydrobenzofuran-6-yl)ethyl)piperidin-4-yl)pyridin-3-amine]",0.05 to 0.2
8,"CC(c1ccc2c(c1)OCC2)N1CCC(NC(=O)Cc2ccc(S(C)(=O)=O)cc2)CC1 (racemic) [Example 25, N-(1-(1-(2,3-dihydrobenzofuran-6-yl)ethyl)piperidin-4-yl)-2-(4-(methylsulfonyl)phenyl)acetamide]",< 0.05
9,"CC(c1ccc2c(c1)OCC2)N1CCC(NC(=O)Cc2ccc(C#N)cc2)CC1 (racemic) [Example 26, 2-(4-cyanophenyl)-N-(1-(1-(2,3-dihydrobenzofuran-6-yl)ethyl)piperidin-4-yl)acetamide]",0.05 to 0.2
10,"CC(c1ccc2c(c1)OCC2)N1CCC(NC(=O)Cc2ccc(C(F)(F)F)cc2)CC1 (racemic) [Example 27, N-(1-(1-(2,3-dihydrobenzofuran-6-yl)ethyl)piperidin-4-yl)-2-(4-(trifluoromethyl)phenyl)acetamide]",0.05 to 0.2
11,"COc1cc(OC2CCN(C(C)c3ccc4c(c3)OCC4)CC2)ccn1 (racemic) [Example 29, 4-((1-(1-(2,3-dihydrobenzofuran-6-yl)ethyl)piperidin-4-yl)oxy)-2-methoxypyridine]",< 0.05
12,"CC(c1ccc2c(c1)OCC2)N1CCC(Oc2ccc(S(C)(=O)=O)cn2)CC1 (racemic) [Example 30, 2-((1-(1-(2,3-dihydrobenzofuran-6-yl)ethyl)piperidin-4-yl)oxy)-5-(methylsulfonyl)pyridine]",< 0.05
13,"CC(c1ccc2c(c1)OCC2)N1CCC(Oc2cccnc2)CC1 (racemic) [Example 32, 3-((1-(1-(2,3-dihydrobenzofuran-6-yl)ethyl)piperidin-4-yl)oxy)pyridine]",< 0.05
14,"CC(c1ccc2c(c1)OCC2)N1CCC(Oc2ccc(C#N)cn2)CC1 (racemic) [Example 33, 6-((1-(1-(2,3-dihydrobenzofuran-6-yl)ethyl)piperidin-4-yl)oxy)nicotinonitrile]",< 0.05
15,"CC(c1ccc2c(c1)OCC2)N1CCC(Oc2cncnc2)CC1 (racemic) [Example 34, 5-((1-(1-(2,3-dihydrobenzofuran-6-yl)ethyl)piperidin-4-yl)oxy)pyrimidine]",0.05 to 0.2
16,"CC(c1ccc2c(c1)OCC2)N1CCC(OCc2cccnc2)CC1 (racemic) [Example 35, 3-(((1-(1-(2,3-dihydrobenzofuran-6-yl)ethyl)piperidin-4-yl)oxy)methyl)pyridine]",0.05 to 0.2
17,"CC(c1ccc2c(c1)OCC2)N1CCC(Oc2ncc(S(C)(=O)=O)cn2)CC1 (racemic) [Example 36, 2-((1-(1-(2,3-dihydrobenzofuran-6-yl)ethyl)piperidin-4-yl)oxy)-5-(methylsulfonyl)pyrimidine]",0.05 to 0.2
18,"CC(c1ccc2c(c1)OCC2)N1CCC(Oc2ncccn2)CC1 (racemic) [Example 37, 2-((1-(1-(2,3-dihydrobenzofuran-6-yl)ethyl)piperidin-4-yl)oxy)pyrimidine]",0.2 to 1
19,"CC(c1ccc2c(c1)OCC2)N1CCC(Oc2cccnn2)CC1 (racemic) [Example 38, 3-((1-(1-(2,3-dihydrobenzofuran-6-yl)ethyl)piperidin-4-yl)oxy)pyridazine]",0.2 to 1
20,"CC(c1ccc2c(c1)OCC2)N1CCC(Oc2cccnc2)CC1 (single isomer, unassigned) [Example 28]",< 0.05
21,"CC(c1ccc2scnc2c1)N1CCC(Oc2cccnc2)CC1 (single isomer, unassigned) [Example 31, (S)-5-(1-(4-(pyridin-3-yloxy)piperidin-1-yl)ethyl)benzo[d]thiazole or (R)-5-(1-(4-(pyridin-3-yloxy)piperidin-1-yl)ethyl)benzo[d]thiazole]",< 0.05
22,"CC(c1ccc2c(c1)OCC2)N1CCC(Oc2cccnc2)CC1 (single isomer, unassigned) [Example 39]",1 to 10
